# According to PMC6625846 (ACS infectious diseases, 2019):
# How the values were obtained:
# [1] = molecular target: T1, recombinant H. influenzae IgA1P (variant A1) (Haemophilus influenzae, UniProt P44969); assay: biochemical
# [2] = molecular target: T1, recombinant H. influenzae IgA1P (variant A1); assay type: biochemical; conditions: up to 100 μM
Compound,IC50 [1] [nM],Inhibition of recombinant H. influenzae IgA1P [2]
"Oc1nsnc1N1CCOCC1 [Compound 1a, 4-morpholin-4-yl-1,2,5-thiadiazol-3-ol]",> 100000,
"O=c1oc(Cl)c(Cl)c2ccccc12 [DCIC, 3,4-dichloroisocoumarin]",6 ± 1,
O=S(=O)(F)Cc1ccccc1 [PMSF],,did not inhibit
NCCc1ccc(S(=O)(=O)F)cc1 [Pefablock],,did not inhibit
